Laboratory results published in patent publication US7001897B2, “1-methylcarbapenem derivatives” (Sankyo Company, Limited, priority 2000, dated 2006).
In brackets after ≈: the same amount, converted by molar mass.

How the values were obtained:
[1] = tested on: Haemophilis influenzae strain 9787 (a strain producing β-lactamase); test: In vitro antibacterial activity, agar plate dilution method; format: cell-based; conditions: C: Haemophilis influenzae strain 9787 (β-lactamase producing); agar plate dilution; read-out: Minimum Concentration to Inhibit Growth of the Employed Bacteria C
Method: (§1) To assess the antibacterial activities of the compounds, the minimum concentrations (μg/ml) of the compounds to inhibit growth of various pathogenic bacteria were determined by agar plate dilution method. In this Table, the employed bacteria A, B, and C were as follow: • A: Staphylococcus aureus • B: Streptococcus pneumoniae • C: Haemophilis influenzae strain 9787 (a strain producing β-lactamase)

[2] = tested on: Staphylococcus aureus; test: as above; format: cell-based; conditions: A: Staphylococcus aureus; agar plate dilution; read-out: Minimum Concentration to Inhibit Growth of the Employed Bacteria A
Method: as §1

[3] = tested on: Streptococcus pneumoniae; test: as above; format: cell-based; conditions: B: Streptococcus pneumoniae; agar plate dilution; read-out: Minimum Concentration to Inhibit Growth of the Employed Bacteria B
Method: as §1

[4] = Pharmacokinetics, plasma concentration by bioassay after subcutaneous injection; format: in vivo; conditions: mouse, sc, mice (ddY, male), 20 mg/kg subcutaneous; for AUC: read-out: AUCall (area under the concentration-time curve in plasma); for Cmax: read-out: Cmax (maximal plasma concentration); for half-life: read-out: T1/2 (half-life in plasma concentration) (converted)
Method: The compounds of the present invention compound (20 mg/kg) was subcutaneously injected to mice (n=3, ddY, male, purchased from SLC Japan). The plasma concentration of the compound was determined by a bioassay method at 5, 15, and 30 min, and 1, 1.5, and 2 hr after administration. In the Table, Cmax, T1/2, and AUCall indicate the maximal plasma concentration, half-life in plasma concentration, and area under the concentration-time curve in plasma of the compound, respectively.

[5] = tested on: S. pneumoniae 9605 (PRSP); test: In vivo antibacterial activity, intraperitoneal infection of mice; conditions: Streptococcus pneumoniae, 168 h; male ddY mice, i.p. S. pneumoniae 9605 (PRSP), single subcutaneous treatment, Probit method from survival rates 7 days after infection
Method: Male ddY mice of 4 weeks old (purchased from SLC Japan) were intraperitoneally inoculated with S. pneumoniae 9605 (PRSP) at a volume of 0.2 ml (containing 5% mucin, 1-5×10^3 colony forming unit (cfu)/mouse). Immediately after the mice were infected, they were subcutaneously treated with the test compound singly at a volume of 0.1 ml. Seven mice were used per group. A solution of the test compound prepared by 2-step dilution was used for the experiment. ED50 values of the compounds were calculated by the Probit method from survival rates 7 days after infection.

Structure (SMILES)	MIC [1]	MIC [2]	MIC [3]	AUC [4]	Cmax [4]	half-life [4]	ED50 [5]
C[C@@H](O)[C@H]1C(=O)N2C(C(=O)O)=C(SC3CN(c4nc(C(=O)N5CCNCC5)cs4)C3)[C@H](C)[C@H]12 [Example 60, (1R,5S,6S)-2-{1-[4-(piperazine-1-carbonyl)-1,3-thiazol-2-yl]azetidin-3-yl}thio-6-[(R)-1-hydroxyethyl]-1-methylcarbapen-2-em-3-carboxylic acid]	0.39 µg/mL (≈ 0.79 µM)	0.025 µg/mL (≈ 0.0506 µM)	0.39 µg/mL (≈ 0.79 µM)	27900 ng·h/mL	46100 ng/mL	18 min	1.41 mg/kg
C[C@@H](O)[C@H]1C(=O)N2C(C(=O)O)=C(SC3CN(c4nc(C(=O)N[C@@H]5CCNC5)cs4)C3)[C@H](C)[C@H]12 [Example 58, (1R,5S,6S)-2-{1-[4-((3R)-pyrrolidin-3-ylcarbamoyl)-1,3-thiazol-2-yl]azetidin-3-yl}thio-6-[(R)-1-hydroxyethyl]-1-methylcarbapen-2-em-3-carboxylic acid]	0.2 µg/mL (≈ 0.405 µM)	≤ 0.012 µg/mL	0.2 µg/mL (≈ 0.405 µM)	47400 ng·h/mL	63900 ng/mL	24.6 min	0.899 mg/kg
C[C@@H](O)[C@H]1C(=O)N2C(C(=O)O)=C(SC3CN(c4nc(C(=O)N[C@H]5CCNC5)cs4)C3)[C@H](C)[C@H]12 [Example 57, (1R,5S,6S)-2-{1-[4-((3S)-pyrrolidin-3-ylcarbamoyl)-1,3-thiazol-2-yl]azetidin-3-yl}thio-6-[(R)-1-hydroxyethyl]-1-methylcarbapen-2-em-3-carboxylic acid]	0.2 µg/mL (≈ 0.405 µM)	0.025 µg/mL (≈ 0.0506 µM)	0.2 µg/mL (≈ 0.405 µM)	45300 ng·h/mL	48200 ng/mL	22.8 min	0.855 mg/kg

Continued, in another order:

MIC [1]	MIC [2]	MIC [3]	AUC [4]	Cmax [4]	half-life [4]	Structure (SMILES)	ED50 [5]
0.39 µg/mL	0.05 µg/mL	0.2 µg/mL	27900 ng·h/mL	52800 ng/mL	11.4 min	C[C@@H](O)[C@H]1C(=O)N2C(C(=O)[O-])=C(SC3CN(c4nc(C(=O)N5CCOCC5)co4)C3)[C@H](C)[C@H]12.[Na+] [Example 76, (1R,5S,6S)-2-[1-(4-morpholinocarbonyl-1,3-oxazol-2-yl)azetidin-3-yl]thio-6-[(R)-1-hydroxyethyl]-1-methylcarbapen-2-em-3-carboxylic acid sodium salt]	0.534 mg/kg
0.2 µg/mL (≈ 0.487 µM)	≤ 0.012 µg/mL	0.39 µg/mL (≈ 0.95 µM)	34100 ng·h/mL	40200 ng/mL	27 min	C[C@@H](O)[C@H]1C(=O)N2C(C(=O)O)=C(SC3CN(c4nc(CN)cs4)C3)[C@H](C)[C@H]12 [Example 67, (1R,5S,6S)-2-[1-(4-aminomethyl-1,3-thiazol-2-yl)azetidin-3-yl]thio-6-[(R)-1-hydroxyethyl]-1-methylcarbapen-2-em-3-carboxylic acid]	1.6 mg/kg
